The results in this text go back to patent US7482358B2, “Imidazoline compounds” (Banyu Pharmaceutical Co., Ltd., priority 2000, dated 2009).

One series addresses T1, human NPY Y5 receptor (Homo sapiens, UniProt Q15761).
T1 construct: expressed in transfected cells; host or cells: COS-7, CHO and LM(tk-)
T1 sequence (Q15761 1-445): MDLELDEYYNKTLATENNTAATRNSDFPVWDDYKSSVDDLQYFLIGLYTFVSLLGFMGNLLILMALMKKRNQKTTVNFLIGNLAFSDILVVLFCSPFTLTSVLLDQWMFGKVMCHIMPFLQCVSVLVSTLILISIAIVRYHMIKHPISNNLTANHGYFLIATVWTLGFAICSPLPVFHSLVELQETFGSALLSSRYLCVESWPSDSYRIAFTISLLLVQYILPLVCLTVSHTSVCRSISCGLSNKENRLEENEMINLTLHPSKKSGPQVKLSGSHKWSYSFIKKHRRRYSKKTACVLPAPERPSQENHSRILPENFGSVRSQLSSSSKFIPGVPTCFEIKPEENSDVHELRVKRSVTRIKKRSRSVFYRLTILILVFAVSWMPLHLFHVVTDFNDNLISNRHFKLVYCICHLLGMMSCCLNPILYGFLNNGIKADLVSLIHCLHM
In words: NPY binding inhibition test ([125I] peptide YY binding to membranes of cells expressing NPY Y5 receptor). The settings on record: against specific [125I] peptide YY binding, 25° C., 2 hours; read-out: IC50, inhibitory activities on NPY receptor binding.

Series [1] is described as follows: Test for pharmacokinetics. Type of series: in vivo. The following applies: male SD rats, overnight fasting, oral or intravenous. How it is done: Pharmacological Test 3 (Test for Pharmacokinetics)
The tested compound was administered orally or intravenously to male SD rats (7-10 weeks old, 200-400 g) under overnight fasting condition, and about 100 μL of blood was taken from tail vein using a heparinized capillary at predefined time points. The blood samples were separated by centrifuge (4° C., 6,000 rpm, for 10 minutes) to obtain plasma. To the plasma, 3-fold volume of ethanol containing the internal standard substances was added and the mixture was stirred, then left at −20° C. for 20 minutes, followed by centrifugation (4° C., 10,000 rpm for 10 minutes). The supernatant was analyzed by LC/MS/MS and then the concentration of the test compound in plasma was measured by the relative calibration curve method.

A short description of series [2]: Brain and cerebrospinal fluid penetration test. The class given is in vivo, male SD rats. The settings on record: 2 hours after oral administration (10 mg/kg), rat; for concentration at 2 h: male, Sprague-Dawley. The method, then:
Pharmacological Test 4 (Brain and Cerebrospinal Fluid Penetration Test)
The tested compound was administered orally or intravenously to male SD rats (7-10 weeks old, 200-400 g). The rats anesthetized with ether, and the all blood were taken at predefined time points with a heparinized syringe from the abdominal aorta. Further, the rats were cut the skin of occipital region of head and inserted a 30 G dental needle between cervical vertebrae, into subarachnoid cavity. And then, 50-100 μL of cerebrospinal fluid was collected in a 1 mL syringe through a tube connected with the 30G dental needle, followed by taking out the brain. To the plasma obtained from the centrifuged blood sample (4° C., 6,000 rpm, for 10 minutes), 3-fold volume of ethanol including the internal standard substances was added and the mixture was stirred. To the brain sample, 2 mL of water was added and the mixture was homogenized. To an aliquot of the homogenized mixture, 3-fold volume of ethanol including the internal standard substances was added, followed by stirring. To the cerebrospinal fluid, 3-fold volume of ethanol containing the internal standard substances was added, followed by stirring. The above samples were left at −20° C. for 20 minutes and separated by centrifuge (4° C., 12,000 g, for 10 minutes). The supernatant was analyzed by LC/MS/MS and then each concentration in plasma, brain and cerebrospinal fluid was measured by the relative calibration curve method.

The structures appear in SMILES notation. Read-outs that look alike come from different tables or passages of the source.

Procedure for human NPY Y5 receptor: These obtained expression vectors were transfected to host cells COS-7, CHO and LM(tk-)(American Type Culture Collection) by cationic lipid method (Confer Proceedings of the National Academy of Sciences of the United States of America, vol. 84:7413(1987)) to give recombinant cells which express NPY Y5 receptor.
A membrane sample prepared from the cells which expressed NPY Y5 receptor was incubated together with a test compound and (^125I) peptide YY (made by NEN) (20,00 cpm) in an assay buffer (25 mM Tris buffer, pH7.4, containing 10 mM magnesium chloride, 1 mM phenylmethylsulfonyl fluoride, 0.1% bacitracin and 0.5% bovine serum albumin) at 25° C. for 2 hours, then filtered through a glass filter GF/C and washed with 5 mM Tris buffer (pH7.4) containing 0.3% BSA. The radioactivity on the glass filter was measured. Nonspecific binding was measured in the presence of 1 μM peptide YY and a 50% Inhibitory Concentration (IC50) of the test compound against specific peptide YY binding was determined (Confer Endocrinology, vol. 131: 2090(1992)).

One may read the IC50 as the point on the concentration scale where inhibition reaches its midpoint. By half-life is commonly meant the time needed for the level to fall by half in the phase considered. As for `CC1NC(c2cnccn2)=NC1(c1ccc(F)cc1)c1ccc(F)cc1` (stereo not shown) [Example 7, 4,4-bis(4-fluorophenyl)-5-methyl-2-pyrazinyl-2-imidazoline], at human NPY Y5 receptor, the IC50 came out at 3.4 nM. Moreover, the half-life in series [1] (Sprague-Dawley, rat, plasma, read-out: half-life in blood (converted)) is 5.1 h. Moreover, the biological availability ratio in series [1] worked out at 35%. Moreover, the cerebral concentration in series [2] is on record as 2.95 nM/g. Also, the concentration at 2 h amounted to 32 nM in series [2] (cerebrospinal fluid, read-out: cerebrospinal concentration) and 730 nM in series [2] (plasma, read-out: plasma concentration). For orientation: melting point means the temperature, or range, at which the solid turns liquid. For `Cc1ccc(C2(c3ccccc3)CNC(c3cccc(C#N)c3)=N2)cc1` (stereo not shown) [Example 5-11, 2-(3-cyanophenyl)-4-(4-methylphenyl)-4-phenyl-2-imidazoline], the melting point is 179 to 180 °C. Regarding `c1ccc(C2(c3ccccc3)CNC(c3cnccn3)=N2)cc1` [Example 5-31, 4,4-diphenyl-2-pyrazinyl-2-imidazoline], the melting point was 183 to 184 °C. The molecule `Fc1ccc(C2(c3ccc(F)cc3)CNC(c3ccsc3)=N2)cc1` [Example 9-10, 4,4-bis(4-fluorophenyl)-2-(3-thienyl)-2-imidazoline] displayed a melting point of 160 to 163 °C. `N#Cc1ccnc(C2=NC(c3ccc(F)cc3)(c3ccnc(F)c3)CN2)c1` (stereo not shown) [Example 14-2, 2-(4-cyano-2-pyridyl)-4-(4-fluorophenyl)-4-(2-fluoro-4-pyridyl)-2-imidazoline] gave a melting point of 169 to 171 °C. Regarding `N#Cc1cccc(C2=NC(c3cccc(F)c3)(c3cccc(F)c3)CN2)c1` [Example 5-1, 2-(3-cyanophenyl)-4,4-bis(3-fluorophenyl)-2-imidazoline], at human NPY Y5 receptor, the IC50 was 2.3 nM. With `CN(C)c1ccc(C2(c3ccccc3)CNC(c3cccc(C#N)c3)=N2)cc1` (stereo not shown) [Example 5-27, 2-(3-cyanophenyl)-4-(4-dimethylaminophenyl)-4-phenyl-2-imidazoline], the melting point is 210 to 213 °C. Regarding `CS(=O)(=O)c1cccc(C2=NC(c3ccc(F)cc3)(c3ccc(F)cc3)CN2)c1` [Example 5-34, 4,4-bis(4-fluorophenyl)-2-(3-methylsulfonylphenyl)-2-imidazoline], the melting point was in the range of 209 to 212 °C. In the case of `O=[N+]([O-])c1cccc(C2=NC(c3ccc(F)cc3)(c3ccc(F)cc3)CN2)c1` [Example 5-13, 4,4-bis(4-fluorophenyl)-2-(3-nitrophenyl)-2-imidazoline], the melting point was 156 to 158 °C. On to `N#Cc1cccc(C2=NC(c3ccccc3)(C3CCC3)CN2)c1` (stereo not shown) [Example 5-46, 2-(3-cyanophenyl)-4-cyclobutyl-4-phenyl-2-imidazoline], for which the melting point lay in the range of 117 to 118 °C. Still for that read-out and setting: the result for `N#Cc1cccc(C2=NC(c3ccccc3)(C3CCCCC3)CN2)c1` (stereo not shown) [Example 5-42, 2-(3-cyanophenyl)-4-cyclohexyl-4-phenyl-2-imidazoline] reads 151 to 152 °C. Consider `Fc1ccc(C2(c3ccc(F)cc3)CNC(c3cccc(OC(F)(F)F)c3)=N2)cc1` [Example 9-4, 4,4-bis(4-fluorophenyl)-2-(3-trifluoromethoxyphenyl)-2-imidazoline], for which the melting point was 114 to 117 °C. Same read-out and setting: then `Fc1ccc(C2(c3ccc(F)cc3)CNC(c3cccs3)=N2)cc1` [Example 9-7, 4,4-bis(4-fluorophenyl)-2-(2-thienyl)-2-imidazoline], with 156 to 160 °C; and `Cc1cccc(C2=NC(c3ccc(F)cc3)(c3ccc(F)cc3)CN2)c1` [Example 9-6, 4,4-bis(4-fluorophenyl)-2-(3-methylphenyl)-2-imidazoline], with 148 to 149 °C.
